Measured values as given in EP4722212A1, “NOVEL COMPOUND FOR INHIBITING PROTEIN KINASES AND PHARMACEUTICAL COMPOSITION COMPRISING SAME” (Magicbullettherapeutics Co., Ltd., priority 2023, dated 2024).
Read-outs that look alike come from different tables or passages of the source.

Experiments:
Assay in all cases: Kinase panel
Type in all cases: biochemical
ABL2/ARG = ABL2/ARG (Homo sapiens, UniProt P42684); details: read-out: residual enzyme activity
Method: (§1) To measure the inhibitory activity of protein kinases against the compounds of the present invention, a biochemical assay was performed using a full kinase panel. The inhibitory efficacy of kinases was measured when Example compounds 8 and 51 were treated at a single concentration of 1 µM, and residual enzyme activity values were calculated. Kinases were identified when the calculated residual enzyme activity values were 40% or less, i.e., inhibited by 60% or more.

BRAF = BRAF (Homo sapiens, UniProt P15056); details: read-out: residual enzyme activity
Chain of BRAF (P15056 whole entry, species assumed): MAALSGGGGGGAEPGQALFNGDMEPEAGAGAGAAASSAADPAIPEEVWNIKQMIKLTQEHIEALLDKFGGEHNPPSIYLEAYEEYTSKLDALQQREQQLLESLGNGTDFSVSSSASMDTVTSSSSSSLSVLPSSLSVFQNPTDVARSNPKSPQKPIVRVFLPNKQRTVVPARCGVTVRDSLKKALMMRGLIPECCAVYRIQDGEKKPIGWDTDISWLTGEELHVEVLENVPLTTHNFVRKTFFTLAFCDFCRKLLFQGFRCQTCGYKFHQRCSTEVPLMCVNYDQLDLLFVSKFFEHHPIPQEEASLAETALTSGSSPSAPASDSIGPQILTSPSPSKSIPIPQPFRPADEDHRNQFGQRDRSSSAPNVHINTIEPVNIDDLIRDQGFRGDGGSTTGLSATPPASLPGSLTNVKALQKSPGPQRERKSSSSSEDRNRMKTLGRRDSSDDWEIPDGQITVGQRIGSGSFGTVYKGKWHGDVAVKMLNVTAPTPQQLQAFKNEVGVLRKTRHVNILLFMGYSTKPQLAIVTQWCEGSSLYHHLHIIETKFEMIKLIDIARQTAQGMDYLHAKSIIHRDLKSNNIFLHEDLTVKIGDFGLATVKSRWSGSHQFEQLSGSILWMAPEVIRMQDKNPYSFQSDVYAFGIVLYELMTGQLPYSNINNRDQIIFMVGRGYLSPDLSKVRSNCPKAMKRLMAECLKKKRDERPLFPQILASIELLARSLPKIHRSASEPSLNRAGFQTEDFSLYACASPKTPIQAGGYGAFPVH
Method: as §1

CAMK2G = CAMK2G (Homo sapiens, UniProt Q13555); details: read-out: residual enzyme activity
Method: as §1

CDK3/CYCLIN E = CDK3/CYCLIN E (Homo sapiens, UniProt Q00526); details: read-out: residual enzyme activity
Chain of CDK3/CYCLIN E (Q00526 whole entry, species assumed): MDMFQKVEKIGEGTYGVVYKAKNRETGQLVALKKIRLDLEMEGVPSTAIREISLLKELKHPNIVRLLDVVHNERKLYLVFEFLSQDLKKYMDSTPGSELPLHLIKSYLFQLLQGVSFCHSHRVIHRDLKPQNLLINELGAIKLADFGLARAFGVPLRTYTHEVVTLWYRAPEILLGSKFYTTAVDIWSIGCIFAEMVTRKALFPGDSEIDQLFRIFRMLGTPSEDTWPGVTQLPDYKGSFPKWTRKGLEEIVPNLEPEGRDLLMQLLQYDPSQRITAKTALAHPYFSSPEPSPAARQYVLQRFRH
Chain of CDK3/CYCLIN E (P24864 whole entry partner, species assumed): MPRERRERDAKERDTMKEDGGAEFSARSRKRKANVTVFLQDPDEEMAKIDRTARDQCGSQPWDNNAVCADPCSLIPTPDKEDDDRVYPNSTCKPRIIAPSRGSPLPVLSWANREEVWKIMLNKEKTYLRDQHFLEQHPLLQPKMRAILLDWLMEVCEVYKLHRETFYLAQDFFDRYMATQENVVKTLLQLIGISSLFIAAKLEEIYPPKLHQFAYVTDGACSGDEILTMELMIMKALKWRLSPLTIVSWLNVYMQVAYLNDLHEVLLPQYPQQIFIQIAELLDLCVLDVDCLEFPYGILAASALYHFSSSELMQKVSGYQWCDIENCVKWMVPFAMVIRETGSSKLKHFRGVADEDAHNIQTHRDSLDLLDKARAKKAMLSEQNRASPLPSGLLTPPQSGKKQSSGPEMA
Method: as §1

CDK5/P25 = CDK5/P25 (Homo sapiens, UniProt Q00535); details: CDK5/P25, 1 µM; read-out: residual enzyme activity
Method: as §1

CLK2 = CLK2 (Homo sapiens, UniProt P49760); details: CLK2, 1 µM; read-out: residual enzyme activity
Method: as §1

DRAK1/STK17A = DRAK1/STK17A (Homo sapiens, UniProt Q9UEE5); details: read-out: residual enzyme activity
Method: as §1

DYRK1/DYRK1A = DYRK1/DYRK1A (Homo sapiens, UniProt Q13627); details: read-out: residual enzyme activity
Method: as §1

ERN1/IRE1 = ERN1/IRE1 (Homo sapiens, UniProt O75460); details: ERN1/IRE1, 1 µM; read-out: residual enzyme activity
Chain of ERN1/IRE1 (O75460 19-977): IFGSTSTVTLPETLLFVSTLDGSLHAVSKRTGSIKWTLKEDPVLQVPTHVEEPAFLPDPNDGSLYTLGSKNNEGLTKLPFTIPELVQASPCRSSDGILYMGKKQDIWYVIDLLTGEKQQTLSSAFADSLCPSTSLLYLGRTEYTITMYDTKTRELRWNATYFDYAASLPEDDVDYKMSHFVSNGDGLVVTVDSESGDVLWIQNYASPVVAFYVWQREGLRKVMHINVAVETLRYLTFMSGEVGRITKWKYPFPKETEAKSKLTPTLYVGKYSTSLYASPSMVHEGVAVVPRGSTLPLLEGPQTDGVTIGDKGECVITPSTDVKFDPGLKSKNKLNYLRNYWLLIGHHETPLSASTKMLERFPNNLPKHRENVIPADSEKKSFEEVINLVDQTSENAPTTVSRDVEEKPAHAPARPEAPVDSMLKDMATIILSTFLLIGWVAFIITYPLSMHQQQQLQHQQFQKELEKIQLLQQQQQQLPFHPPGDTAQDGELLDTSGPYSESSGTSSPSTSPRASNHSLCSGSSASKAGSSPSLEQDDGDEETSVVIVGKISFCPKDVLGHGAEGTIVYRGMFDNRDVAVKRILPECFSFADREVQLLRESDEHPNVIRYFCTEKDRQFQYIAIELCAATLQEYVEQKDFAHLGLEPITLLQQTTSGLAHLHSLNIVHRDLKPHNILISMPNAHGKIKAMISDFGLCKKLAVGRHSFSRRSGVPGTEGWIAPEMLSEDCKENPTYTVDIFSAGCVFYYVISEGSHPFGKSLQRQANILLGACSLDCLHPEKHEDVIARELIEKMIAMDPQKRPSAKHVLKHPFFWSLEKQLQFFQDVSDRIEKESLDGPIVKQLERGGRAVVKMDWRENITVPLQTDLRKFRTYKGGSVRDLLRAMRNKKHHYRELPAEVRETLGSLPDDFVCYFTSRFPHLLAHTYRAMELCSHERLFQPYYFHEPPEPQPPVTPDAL
Method: as §1

GSK3B = GSK3B (Homo sapiens, UniProt P49841); details: read-out: residual enzyme activity
Method: as §1

HCK = HCK (Homo sapiens, UniProt P08631); details: read-out: residual enzyme activity
Method: as §1

HGK/MAP4K4 = HGK/MAP4K4 (Homo sapiens, UniProt O95819); details: HGK/MAP4K4, 1 µM; read-out: residual enzyme activity
Method: as §1

HPK1/MAP4K1 = HPK1/MAP4K1 (Homo sapiens, UniProt Q92918); details: HPK1/MAP4K1, 1 µM; read-out: residual enzyme activity
Method: as §1

JAK1 = JAK1 (Homo sapiens, UniProt P23458); details: JAK1, 1 µM; read-out: residual enzyme activity
Method: as §1

JNK1 = JNK1 (Homo sapiens, UniProt P45983); details: JNK1, 1 µM; read-out: residual enzyme activity
Method: as §1

LATS1 = LATS1 (Homo sapiens, UniProt O95835); details: LATS1, 1 µM; read-out: residual enzyme activity
Method: as §1

LIMK1 = LIMK1 (Homo sapiens, UniProt P53667); details: LIMK1, 1 µM; read-out: residual enzyme activity
Method: as §1

MAST3 = MAST3 (Homo sapiens, UniProt O60307); details: MAST3, 1 µM; read-out: residual enzyme activity
Method: as §1

MEKK3 = MEKK3 (Homo sapiens, UniProt Q99759); details: MEKK3, 1 µM; read-out: residual enzyme activity
Method: as §1

MEKK6 = MEKK6 (Homo sapiens, UniProt O95382); details: MEKK6, 1 µM; read-out: residual enzyme activity
Method: as §1

MLCK2/MYLK2 = MLCK2/MYLK2 (Homo sapiens, UniProt Q9H1R3); details: MLCK2/MYLK2, 1 µM; read-out: residual enzyme activity
Method: as §1

MRCKB/CDC42BPB = MRCKB/CDC42BPB (Homo sapiens, UniProt Q9Y5S2); details: read-out: residual enzyme activity
Method: as §1

MST3/STK24 = MST3/STK24 (Homo sapiens, UniProt Q9Y6E0); details: MST3/STK24, 1 µM; read-out: residual enzyme activity
Method: as §1

NEK11 = NEK11 (Homo sapiens, UniProt Q8NG66); details: NEK11, 1 µM; read-out: residual enzyme activity
Chain of NEK11 (Q8NG66 whole entry, species assumed): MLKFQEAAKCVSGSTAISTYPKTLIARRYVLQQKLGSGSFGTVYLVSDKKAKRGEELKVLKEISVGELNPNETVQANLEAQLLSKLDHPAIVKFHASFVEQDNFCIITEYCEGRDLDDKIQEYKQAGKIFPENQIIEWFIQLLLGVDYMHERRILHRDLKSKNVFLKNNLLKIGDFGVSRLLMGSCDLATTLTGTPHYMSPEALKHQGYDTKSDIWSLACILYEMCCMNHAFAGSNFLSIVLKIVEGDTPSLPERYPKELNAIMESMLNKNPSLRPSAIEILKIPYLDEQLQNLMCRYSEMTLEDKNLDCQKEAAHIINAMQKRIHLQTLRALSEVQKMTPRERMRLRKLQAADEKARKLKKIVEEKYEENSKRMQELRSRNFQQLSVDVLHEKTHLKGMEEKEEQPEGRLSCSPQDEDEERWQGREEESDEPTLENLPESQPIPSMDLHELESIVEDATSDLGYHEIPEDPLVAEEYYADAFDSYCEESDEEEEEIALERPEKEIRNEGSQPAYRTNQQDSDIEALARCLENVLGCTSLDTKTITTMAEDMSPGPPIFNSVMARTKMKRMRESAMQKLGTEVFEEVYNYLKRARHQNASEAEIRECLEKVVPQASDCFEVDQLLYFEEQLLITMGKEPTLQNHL
Method: as §1

NEK4 = NEK4 (Homo sapiens, UniProt P51957); details: NEK4, 1 µM; read-out: residual enzyme activity
Method: as §1

NIM1 = NIM1 (Homo sapiens, UniProt Q8IY84); details: NIM1, 1 µM; read-out: residual enzyme activity
Method: as §1

P38G = P38G (Homo sapiens, UniProt P53778); details: read-out: residual enzyme activity
Method: as §1

PHKG2 = PHKG2 (Homo sapiens, UniProt P15735); details: PHKg2, 1 µM; read-out: residual enzyme activity
Method: as §1

PLK1 = PLK1 (Homo sapiens, UniProt P53350); details: PLK1, 1 µM; read-out: residual enzyme activity
Method: as §1

PLK2 = PLK2 (Homo sapiens, UniProt Q9NYY3); details: PLK2, 1 µM; read-out: residual enzyme activity
Method: as §1

RAF1 = RAF1 (Homo sapiens, UniProt P04049); details: RAF1, 1 µM; read-out: residual enzyme activity
Chain of RAF1 (P04049 whole entry, species assumed): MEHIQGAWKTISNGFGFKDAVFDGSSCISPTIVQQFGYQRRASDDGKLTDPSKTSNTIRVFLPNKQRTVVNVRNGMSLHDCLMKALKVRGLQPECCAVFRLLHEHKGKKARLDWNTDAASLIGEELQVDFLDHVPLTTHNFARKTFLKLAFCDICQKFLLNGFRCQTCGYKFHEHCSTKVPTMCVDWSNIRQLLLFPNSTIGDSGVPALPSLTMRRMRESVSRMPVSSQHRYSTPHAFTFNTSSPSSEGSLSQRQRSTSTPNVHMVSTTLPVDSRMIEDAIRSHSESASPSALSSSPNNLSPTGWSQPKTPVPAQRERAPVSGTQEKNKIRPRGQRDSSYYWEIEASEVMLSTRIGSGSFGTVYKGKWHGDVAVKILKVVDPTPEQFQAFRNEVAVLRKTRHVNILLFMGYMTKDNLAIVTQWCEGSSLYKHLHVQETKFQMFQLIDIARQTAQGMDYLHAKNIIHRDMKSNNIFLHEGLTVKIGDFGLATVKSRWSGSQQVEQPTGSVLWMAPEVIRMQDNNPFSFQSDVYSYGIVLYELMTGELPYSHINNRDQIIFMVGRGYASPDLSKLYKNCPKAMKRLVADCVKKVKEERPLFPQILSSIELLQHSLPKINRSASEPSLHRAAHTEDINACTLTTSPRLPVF
Method: as §1

SNRK = SNRK (Homo sapiens, UniProt Q9NRH2); details: read-out: residual enzyme activity
Method: as §1

SYK = SYK (Homo sapiens, UniProt P43405); details: read-out: residual enzyme activity
Method: as §1

TAOK3/JIK = TAOK3/JIK (Homo sapiens, UniProt Q9H2K8); details: read-out: residual enzyme activity
Method: as §1

Chain of ABL2/ARG (P42684 whole entry): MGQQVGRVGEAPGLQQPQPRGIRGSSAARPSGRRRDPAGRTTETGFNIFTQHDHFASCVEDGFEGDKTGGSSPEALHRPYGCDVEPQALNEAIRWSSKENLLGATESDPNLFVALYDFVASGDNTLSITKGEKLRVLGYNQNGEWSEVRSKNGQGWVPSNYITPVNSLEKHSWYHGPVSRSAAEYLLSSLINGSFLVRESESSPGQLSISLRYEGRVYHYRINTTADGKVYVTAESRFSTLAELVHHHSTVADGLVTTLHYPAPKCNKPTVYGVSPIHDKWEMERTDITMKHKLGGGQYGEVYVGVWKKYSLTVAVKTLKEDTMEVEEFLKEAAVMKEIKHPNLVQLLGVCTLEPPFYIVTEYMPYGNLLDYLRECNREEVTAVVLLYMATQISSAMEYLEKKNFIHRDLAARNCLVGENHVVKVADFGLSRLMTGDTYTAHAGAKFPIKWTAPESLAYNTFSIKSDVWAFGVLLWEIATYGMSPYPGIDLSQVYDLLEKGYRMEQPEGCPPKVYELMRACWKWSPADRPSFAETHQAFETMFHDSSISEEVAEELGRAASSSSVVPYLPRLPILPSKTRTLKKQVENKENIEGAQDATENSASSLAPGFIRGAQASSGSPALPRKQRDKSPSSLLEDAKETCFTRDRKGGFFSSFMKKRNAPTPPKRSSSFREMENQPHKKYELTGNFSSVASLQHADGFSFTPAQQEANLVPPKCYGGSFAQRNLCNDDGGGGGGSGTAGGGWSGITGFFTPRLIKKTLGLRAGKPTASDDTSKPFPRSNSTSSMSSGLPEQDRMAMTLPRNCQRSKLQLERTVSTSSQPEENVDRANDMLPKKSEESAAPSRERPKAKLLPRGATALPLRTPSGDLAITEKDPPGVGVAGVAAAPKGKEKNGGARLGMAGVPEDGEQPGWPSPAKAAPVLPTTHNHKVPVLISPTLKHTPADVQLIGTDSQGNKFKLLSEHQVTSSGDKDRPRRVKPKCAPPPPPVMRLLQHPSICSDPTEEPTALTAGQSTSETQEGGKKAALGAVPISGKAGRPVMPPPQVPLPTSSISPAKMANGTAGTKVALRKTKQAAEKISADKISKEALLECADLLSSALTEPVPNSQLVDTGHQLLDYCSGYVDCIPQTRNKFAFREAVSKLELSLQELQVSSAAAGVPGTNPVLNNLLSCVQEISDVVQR

## Cc1cn(-c2cc(C(=O)Nc3ccc(C)c(N4Cc5cnc(NC6CC6)nc5C5(CC5)C4=O)c3)cc(C(F)(F)F)c2)cn1 [Compound 8, N-(3-(2'-(cyclopropylamino)-7'-oxo-5'H-spiro[cyclopropane-1,8'-pyrido[4,3-d]pyrimidine]-6'(7'H)-yl)-4-methylphenyl)-3-(4-methyl-1H-imidazol-1-yl)-5-(trifluoromethyl)benzamide]
ABL2/ARG
  remaining activity at 1 µM: ≤ 40%
BRAF
  remaining activity at 1 µM: ≤ 40%
CAMK2G; CAMK2G
  remaining activity at 1 µM: > 40%
CDK3/CYCLIN E
  remaining activity at 1 µM: > 40%
CDK5/P25
  remaining activity at 1 µM: > 40%
CLK2
  remaining activity at 1 µM: > 40%
DRAK1/STK17A
  remaining activity at 1 µM: > 40%
DYRK1/DYRK1A
  remaining activity at 1 µM: > 40%
ERN1/IRE1
  remaining activity at 1 µM: > 40%
GSK3B; GSK3B
  remaining activity at 1 µM: > 40%
HCK
  remaining activity at 1 µM: ≤ 40%
HGK/MAP4K4
  remaining activity at 1 µM: ≤ 40%
HPK1/MAP4K1
  remaining activity at 1 µM: ≤ 40%
JAK1
  remaining activity at 1 µM: ≤ 40%
JNK1
  remaining activity at 1 µM: > 40%
LATS1
  remaining activity at 1 µM: > 40%
LIMK1
  remaining activity at 1 µM: ≤ 40%
MAST3
  remaining activity at 1 µM: > 40%
MEKK3
  remaining activity at 1 µM: ≤ 40%
MEKK6
  remaining activity at 1 µM: > 40%
MLCK2/MYLK2
  remaining activity at 1 µM: ≤ 40%
MRCKB/CDC42BPB
  remaining activity at 1 µM: > 40%
MST3/STK24
  remaining activity at 1 µM: > 40%
NEK11
  remaining activity at 1 µM: > 40%
NEK4
  remaining activity at 1 µM: ≤ 40%
NIM1
  remaining activity at 1 µM: > 40%
P38G; P38G
  remaining activity at 1 µM: > 40%
PHKG2
  remaining activity at 1 µM: > 40%
PLK1
  remaining activity at 1 µM: > 40%
PLK2
  remaining activity at 1 µM: > 40%
RAF1
  remaining activity at 1 µM: ≤ 40%
SNRK
  remaining activity at 1 µM: > 40%
SYK
  remaining activity at 1 µM: > 40%
TAOK3/JIK
  remaining activity at 1 µM: ≤ 40%

## Cc1ccc(Nc2ncc3c(n2)C2(CC2)C(=O)N(c2cc(NC(=O)c4cccc(C(F)(F)F)c4)ccc2C)C3)cn1 [Compound 51, N-(4-methyl-3-(2'-((6-methylpyridin-3-yl)amino)-7'-oxo-5'H-spiro[cyclopropane-1,8'-pyrido[4,3-d]pyrimidine]-6'(7'H)-yl)phenyl)-3-(trifluoromethyl)benzamide]
ABL2/ARG
  remaining activity at 1 µM: ≤ 40%
BRAF
  remaining activity at 1 µM: ≤ 40%
CAMK2G; CAMK2g
  remaining activity at 1 µM: > 40%
CDK3/CYCLIN E
  remaining activity at 1 µM: > 40%
CDK5/P25
  remaining activity at 1 µM: > 40%
CLK2
  remaining activity at 1 µM: > 40%
DRAK1/STK17A
  remaining activity at 1 µM: > 40%
DYRK1/DYRK1A
  remaining activity at 1 µM: > 40%
ERN1/IRE1
  remaining activity at 1 µM: > 40%
GSK3B; GSK3b
  remaining activity at 1 µM: > 40%
HCK
  remaining activity at 1 µM: ≤ 40%
HGK/MAP4K4
  remaining activity at 1 µM: ≤ 40%
HPK1/MAP4K1
  remaining activity at 1 µM: ≤ 40%
JAK1
  remaining activity at 1 µM: ≤ 40%
JNK1
  remaining activity at 1 µM: ≤ 40%
LATS1
  remaining activity at 1 µM: > 40%
LIMK1
  remaining activity at 1 µM: ≤ 40%
MAST3
  remaining activity at 1 µM: > 40%
MEKK3
  remaining activity at 1 µM: ≤ 40%
MEKK6
  remaining activity at 1 µM: > 40%
MLCK2/MYLK2
  remaining activity at 1 µM: ≤ 40%
MRCKB/CDC42BPB
  remaining activity at 1 µM: > 40%
MST3/STK24
  remaining activity at 1 µM: > 40%
NEK11
  remaining activity at 1 µM: ≤ 40%
NEK4
  remaining activity at 1 µM: ≤ 40%
NIM1
  remaining activity at 1 µM: > 40%
P38G; P38g
  remaining activity at 1 µM: > 40%
PHKG2
  remaining activity at 1 µM: > 40%
PLK1
  remaining activity at 1 µM: > 40%
PLK2
  remaining activity at 1 µM: > 40%
RAF1
  remaining activity at 1 µM: ≤ 40%
SNRK
  remaining activity at 1 µM: > 40%
SYK
  remaining activity at 1 µM: ≤ 40%
TAOK3/JIK
  remaining activity at 1 µM: ≤ 40%
